According to patent publication US12077503B2, “Substituted cyclic amides and their use as herbicides” (FMC CORPORATION, priority 2015, dated 2024):

Key:
Format in all cases: in vivo
Kochia (Kochia scoparia) [1] = test: Test A preemergence; conditions: for Kochia plant response rating: 0 to 100 scale where 0 is no effect and 100 is complete control; for Plant response rating, Kochia: 125 g ai/ha, 0 to 100 scale (0 no effect, 100 complete control)
Source text: (§1) Seeds of plant species selected from barnyardgrass (Echinochloa crus-galli), Kochia (Kochia scoparia), ragweed (common ragweed, Ambrosia elatior), ryegrass, Italian (Italian ryegrass, Lolium multiflorum), crabgrass, large (Digitaria sanguinalis), giant foxtail (Setaria faberii), green foxtail (Setaria viridis), morningglory (Ipomoea spp.), pigweed (Amaranthus retroflexus), velvetleaf (Abutilon theophrasti), wheat (Triticum aestivum), and corn (Zea mays) were planted into a blend of loam soil and sand and treated preemergence with a directed soil spray using test chemicals formulated in anon-phytotoxic solvent mixture which included a surfactant.
(§2) At the same time, plants selected from these crop and weed species and also blackgrass (Alopecurus myosuroides), and Galium (catchweed bedstraw, Galium aparine) were planted in pots containing the same blend of loam soil and sand and treated with postemergence applications of test chemicals formulated in the same manner. Plants ranged in height from 2 to 10 cm and were in the one- to two-leaf stage for the postemergence treatment. Treated plants and untreated controls were maintained in a greenhouse for approximately 10 d, after which time all treated plants were compared to untreated controls and visually evaluated for injury. Plant response ratings, summarized in Table A, are based on a 0 to 100 scale where 0 is no effect and 100 is complete control. A dash (-) response means no test result.

[2] = tested on: barnyardgrass (Echinochloa crus-galli); test: Test A preemergence; conditions: for Barnyardgrass plant response rating: 0 to 100 scale where 0 is no effect and 100 is complete control; for Plant response rating, Barnyardgrass: 125 g ai/ha, 0 to 100 scale (0 no effect, 100 complete control)
Source text: as §1, §2

[3] = tested on: giant foxtail (Setaria faberii); test: Test A preemergence; conditions: for Foxtail, Giant plant response rating: 0 to 100 scale where 0 is no effect and 100 is complete control; for Plant response rating, Foxtail, Giant: 125 g ai/ha, 0 to 100 scale (0 no effect, 100 complete control)
Source text: as §1, §2

[4] = tested on: pigweed (Amaranthus retroflexus); test: Test A preemergence; conditions: for Pigweed plant response rating: 0 to 100 scale where 0 is no effect and 100 is complete control; for Plant response rating, Pigweed: 125 g ai/ha, 0 to 100 scale (0 no effect, 100 complete control)
Source text: as §1, §2

[5] = tested on: ragweed (common ragweed, Ambrosia elatior); test: Test A preemergence; conditions: for Ragweed plant response rating: 0 to 100 scale where 0 is no effect and 100 is complete control; for Plant response rating, Ragweed: 125 g ai/ha, 0 to 100 scale (0 no effect, 100 complete control)
Source text: as §1, §2

[6] = tested on: ryegrass, Italian (Italian ryegrass, Lolium multiflorum); test: Test A preemergence; conditions: Preemergence; for Plant response rating, Ryegrass, Italian: 125 g ai/ha, 0 to 100 scale (0 no effect, 100 complete control)
Source text: as §1, §2

[7] = tested on: Galium (catchweed bedstraw, Galium aparine); test: Test A postemergence; conditions: Postemergence
Source text: as §1, §2

Kochia (Kochia scoparia) [8] = test: Test A postemergence; conditions: Postemergence
Source text: as §1, §2

[9] = tested on: blackgrass (Alopecurus myosuroides); test: Test A postemergence; conditions: Postemergence
Source text: as §1, §2

corn (Zea mays) = test: Test A postemergence; conditions: Postemergence
Source text: as §1, §2

[10] = tested on: giant foxtail (Setaria faberii); test: Test A postemergence; conditions: Postemergence
Source text: as §1, §2

[11] = tested on: pigweed (Amaranthus retroflexus); test: Test A postemergence; conditions: Postemergence
Source text: as §1, §2

[12] = tested on: ragweed (common ragweed, Ambrosia elatior); test: Test A postemergence; conditions: Postemergence
Source text: as §1, §2

[13] = tested on: ryegrass, Italian (Italian ryegrass, Lolium multiflorum); test: Test A postemergence; conditions: Postemergence
Source text: as §1, §2

[14] = tested on: wheat (Triticum aestivum); test: Test A postemergence; conditions: Postemergence
Source text: as §1, §2

[15] = tested on: barnyardgrass (Echinochloa crus-galli); test: Test B flooded paddy test; conditions: 250 g ai/ha, Flood
Experimental: (§3) Plant species in the flooded paddy test selected from rice (Oryra sativa), sedge, umbrella (small-flower umbrella sedge, Cyperus difformis), ducksalad (Heteranthera limosa), and barnyardgrass (Echinochloa crus-galli) were grown to the 2-leaf stage for testing. At time of treatment, test pots were flooded to 3 cm above the soil surface, treated by application of test compounds directly to the paddy water, and then maintained at that water depth for the duration of the test. Treated plants and controls were maintained in a greenhouse for 13 to 15 d, after which time all species were compared to controls and visually evaluated. Plant response ratings, summarized in Table B, are based on a scale of 0 to 100 where 0 is no effect and 100 is complete control. A dash (-) response means no test result.

[16] = tested on: ducksalad (Heteranthera limosa); test: Test B flooded paddy test; conditions: 250 g ai/ha, Flood
Experimental: as §3

rice (Oryra sativa) = test: Test B flooded paddy test; conditions: 250 g ai/ha, Flood
Experimental: as §3

[17] = tested on: sedge, umbrella (small-flower umbrella sedge, Cyperus difformis); test: Test B flooded paddy test; conditions: Flood, 250 g ai/ha; visually evaluated after 13 to 15 d
Experimental: as §3

[18] = tested on: barnyardgrass (Echinochloa crus-galli); test: Test A postemergence; conditions: Postemergence
Source text: as §1, §2

[19] = 125 g ai/ha, visual rating about 10 d after treatment
[20] = 500 g ai/ha, visual injury, 0 to 100 scale (0 no effect, 100 complete control), approx. 10 d
[21] = 0 to 100 scale where 0 is no effect and 100 is complete control
[22] = 31 g ai/ha, 0 is no effect, 100 is complete control
[23] = visually evaluated after 13 to 15 d

## Cc1cc([C@H]2CN(C)C(=O)[C@@H]2C(=O)Nc2ccccc2[S+](C)[O-])ccc1F (stereo partly shown) [Compound 1314]
Kochia (Kochia scoparia) [1]; 500 g ai/ha, preemergence
  Kochia plant response rating: 80
Kochia (Kochia scoparia) [1]; Preemergence
  Plant response rating, Kochia: 80
[2]; 500 g ai/ha, preemergence
  Barnyardgrass plant response rating: 100
[2]; Preemergence
  Plant response rating, Barnyardgrass: 100
[3]; 500 g ai/ha, preemergence
  Foxtail, Giant plant response rating: 100
[3]; Preemergence
  Plant response rating, Foxtail, Giant: 90
[4]; 500 g ai/ha, preemergence
  Pigweed plant response rating: 70
[4]; Preemergence
  Plant response rating, Pigweed: 0
[5]; 500 g ai/ha, preemergence
  Ragweed plant response rating: 100
[5]; Preemergence
  Plant response rating, Ragweed: 80
[6]
  Plant response rating, Ryegrass, Italian: 20
[7]; [19]
  Galium plant response rating (0 to 100 scale): 30
[7]; [20]
  Plant response rating, Galium: 50
Kochia (Kochia scoparia) [8]; [19]
  Kochia plant response rating (0 to 100 scale): 50
Kochia (Kochia scoparia) [8]; [20]
  Plant response rating, Kochia: 60
[9]; [19]
  Blackgrass plant response rating (0 to 100 scale): 0
[9]; [20]
  Plant response rating, Blackgrass: 60
Corn (Zea mays); [19]
  Corn plant response rating (0 to 100 scale): 30
Corn (Zea mays); [20]
  Plant response rating, Corn: 70
[10]; [19]
  Foxtail, Giant plant response rating (0 to 100 scale): 90
[10]; [20]
  Plant response rating, Foxtail, Giant: 90
[11]; [19]
  Pigweed plant response rating (0 to 100 scale): 0
[11]; [20]
  Plant response rating, Pigweed: 30
[12]; [19]
  Ragweed plant response rating (0 to 100 scale): 0
[12]; [20]
  Plant response rating, Ragweed: 50
[13]; [19]
  Ryegrass, Italian plant response rating (0 to 100 scale): 0
[13]; [20]
  Plant response rating, Ryegrass, Italian: 0
[14]; [19]
  Wheat plant response rating (0 to 100 scale): 20
[14]; [20]
  Plant response rating, Wheat: 60
[15]; [21]
  Barnyardgrass plant response rating: 65
[16]; [21]
  Ducksalad plant response rating: 100
Rice (Oryra sativa); [21]
  Rice plant response rating: 0
[17]
  Plant response rating, Sedge, Umbrella (0 to 100 scale where 0 is no effect and 100 is complete control): 0

## CN1C[C@H](c2ccc3c(c2)OC(F)(F)O3)[C@@H](C(=O)Nc2cccc([N+](=O)[O-])c2)C1=O [Compound 1353]
Kochia (Kochia scoparia) [1]; 31 g ai/ha, Preemergence
  Kochia plant response rating: 60
Kochia (Kochia scoparia) [1]; Preemergence
  Plant response rating, Kochia: 80
[2]; 31 g ai/ha, Preemergence
  Barnyardgrass plant response rating: 0
[2]; Preemergence
  Plant response rating, Barnyardgrass: 70
[3]; 31 g ai/ha, Preemergence
  Foxtail, Giant plant response rating: 80
[3]; Preemergence
  Plant response rating, Foxtail, Giant: 100
[4]; 31 g ai/ha, Preemergence
  Pigweed plant response rating: 0
[4]; Preemergence
  Plant response rating, Pigweed: 30
[5]; 31 g ai/ha, Preemergence
  Ragweed plant response rating: 40
[5]; Preemergence
  Plant response rating, Ragweed: 0
[6]; 31 g ai/ha, 0 to 100 scale where 0 is no effect and 100 is complete control
  Ryegrass, Italian plant response rating: 10
[6]
  Plant response rating, Ryegrass, Italian: 20
Kochia (Kochia scoparia) [8]; [19]
  Kochia plant response rating (0 to 100 scale): 20
Kochia (Kochia scoparia) [8]; [22]
  Kochia plant response rating (0 to 100 scale): 0
[18]; [19]
  Barnyardgrass plant response rating (0 to 100 scale, 0 no effect, 100 complete control): 90
[18]; [22]
  Barnyardgrass plant response rating (0 to 100 scale): 40
[9]; [19]
  Blackgrass plant response rating (0 to 100 scale): 20
[9]; [22]
  Blackgrass plant response rating (0 to 100 scale): 0
Corn (Zea mays); [19]
  Corn plant response rating (0 to 100 scale): 0
Corn (Zea mays); [22]
  Corn plant response rating (0 to 100 scale): 0
[10]; [19]
  Foxtail, Giant plant response rating (0 to 100 scale): 70
[10]; [22]
  Foxtail, Giant plant response rating (0 to 100 scale): 30
[11]; [19]
  Pigweed plant response rating (0 to 100 scale): 20
[11]; [22]
  Pigweed plant response rating (0 to 100 scale): 0
[12]; [19]
  Ragweed plant response rating (0 to 100 scale): 0
[12]; [22]
  Ragweed plant response rating (0 to 100 scale): 0
[13]; [19]
  Ryegrass, Italian plant response rating (0 to 100 scale): 0
[13]; [22]
  Ryegrass, Italian plant response rating (0 to 100 scale): 0
[14]; [19]
  Wheat plant response rating (0 to 100 scale): 0
[14]; [22]
  Wheat plant response rating (0 to 100 scale): 0
[15]; [23]
  Plant response rating, Barnyardgrass (0 to 100 scale where 0 is no effect and 100 is complete control): 60
[16]; [23]
  Plant response rating, Ducksalad (0 to 100 scale where 0 is no effect and 100 is complete control): 40
Rice (Oryra sativa); [23]
  Plant response rating, Rice (0 to 100 scale where 0 is no effect and 100 is complete control): 0
[17]
  Plant response rating, Sedge, Umbrella (0 to 100 scale where 0 is no effect and 100 is complete control): 0
